Data set [1] in a line: Solubility (physicochemical properties). The settings on record: for Solubility in hydrated solvent: aqueous methanol or aqueous acetonitrile, percentage range given per compound; for Solubility in less-polar organic solvents: such as hexane or chloroform (Me1H1W4: chloroform and toluene).
The next data set concerns Monostroma oxyspermum. Kind of data set: Minimum effective concentration (MEC) for thallus formation in Monostroma oxyspermum culture. In kind it is cell-based. Here is the method: One ml of modified ASP7 medium was added in the wells of the first row of 48-well microtitre plates (Iwaki, hereafter abbreviated as 48-MTP) and 0.9 ml of modified ASP7 medium was added in the wells of the second and subsequent rows. Eleven μl of the active substance fraction of the target was added individually and mixed well by pipetting in the wells on the first row, followed by adding 100 μl of this mixed solution to the wells on the next row. By repeating this procedures subsequently for 8 to 18 times for each fraction, a ten-fold serial dilution can be prepared in 8 to 18 steps. 100 μl that remained in solution in the wells on the last row was discarded. Here, 100 μl of Monostroma oxyspermum culture medium was diluted subsequently so that the final cell concentration of 10 to 20 cells per 1 ml, was delivered to all wells of 48-MTP to bring the total amount of solution to 1 ml. […] The MEC is used as an index for isolation.
Similar to the case of Example 1, isolated and purified novel chemical substance 1 was serially diluted in 16 steps starting with the final concentration of 1 μg/ml. At this time, the Monostroma oxyspermum cell number was adjusted to be 20 cells per 1 ml of the medium. Fresh pipet tips were used for each step dilution. Three sets of these series were prepared and were cultivated for 3 days under the same condition as Example 1. […] Based on this, the MEC of the novel chemical substance 1 will be as follows.
Similar to Example 5, the MEC of the novel chemical substance 1 and its derivatives are measured and the results are shown below.

Data set [2] has as its system Enteromorpha intestinalis. The data set is described as follows: Culturing experiment of Enteromorpha intestinalis. In kind it is cell-based. Conditions: 1 ng/ml in ASP7 medium, vs control group without addition (FIG. 16). Here is the method:
(§1) Spores obtained from the Ulva pertusa and Enteromorpha intestinalis collected from Miho Shimizu-city, Shizuoka were washed using their phototaxis activity in the ASP7 medium supplemented with the antibiotics, and then were transferred to rectangular petri dishes filled with sterilized covered glasses and aseptized for 5 days. When the free-living cells had attached to the cover glasses and had start growing, each cover glass was placed in each hole of 6-MTP, followed by adding 10 ml of the ASP7 medium not supplemented with antibiotics. For a test group, the novel chemical substance 1 was added to result in 1 ng/ml and for the control group, nothing was added. They were incubtaed for 7 days under the same conditions as in Example 1. […], the cover glasses of the test group and control section were transferred to the culture test tube containing the medium prepared under the same condition to further incubate another 7 days. […] In addition, the ASP7 medium supplemented with antibiotics is an ASP medium, having the following composition and containing 2% antibiotics.

The test system of a further data set is Ulva pertusa. The data set is described as follows: Culturing experiment of Ulva pertusa. In kind it is cell-based. The settings on record: 1 ng/ml in ASP7 medium, vs control group without addition (FIG. 15). The protocol: as §1
A short description of data set [3]: Stability of the substances. In kind it is physicochemical.
Setting [4] is: thallus formation of Monostroma oxyspermum, measured similar to Example 5.

Regarding `CC1(C)CCC[C@]2(C)C3C[C@H]4c5ccc(CO)nc5CO[C@@]4(CO)O[C@]3(C)CC[C@@H]12` (stereo partly shown) [Me1H1W4], in data set [1], the “Solubility in hydrated solvent” value is on record as “soluble”, the “Solubility in less-polar organic solvents” value is “soluble” and the Solubility in water entry was “Poorly soluble”. For the same molecule, in data set [1] (such as hexane), the “Solubility in non-polar solvent” value was “hardly soluble”.

Take `CC1(C)CCC[C@]2(C)C3CC(c4ccc(CO)nc4CO)=C(CO)O[C@]3(C)CC[C@@H]12` (stereo partly shown) [Me1H1]: in data set [1], the “Solubility in hydrated solvent” value was “soluble”, the “Solubility in less-polar organic solvents” value is recorded as “soluble” and the Solubility in water entry is given as “hardly soluble”. Further, the MEC result in the data set on Monostroma oxyspermum (setting [4]) is “No activity”.

Regarding `COC(=O)C1=C(c2ccc(C(=O)OC)nc2C(=O)OC)CC2[C@@](C)(CC[C@H]3C(C)(C)CCC[C@]23C)O1` (stereo partly shown) [Me1], the “Solubility in DMSO” value in data set [1] (DMSO) is on record as “hardly soluble”. Moreover, in data set [1], the “Solubility in hydrated solvent” value is reported as “soluble”, the “Solubility in less-polar organic solvents” value is reported as “hardly soluble” and the Solubility in water entry is “hardly soluble”. In addition, the MEC with Monostroma oxyspermum (setting [4]) was 10^−4 μg/ml.

Consider `CC1(C)CCC[C@]2(C)C3CC(c4ccc(C(=O)O)nc4C(=O)O)=C(C(=O)O)O[C@]3(C)CC[C@@H]12` (stereo partly shown) [Novel Chemical Substance 1], for which the MEC with Monostroma oxyspermum (cultivated for 3 days, 20 cells per 1 ml, thallus formation at 12-step ten-fold dilution from 1 μg/ml) was 1 ag/ml; in the data set with Monostroma oxyspermum (setting [4]), 10^−12 μg/ml. Besides, in the data set with Monostroma oxyspermum (cultivated for 10 days, six-step dilution from 1 μg/ml), the “MEC after 10 days cultivation” value turned out to be 1 pg/mL. Also, the Thallus state entry is given as “the disrupted thallus is observed” in the data set with Monostroma oxyspermum (seven-step dilution, final concentration 1×10^−7 μg/ml, cultivated for 10 days (FIG. 13)) and “The thallus was maintained without being collapsed” in the data set with Monostroma oxyspermum (six-step dilution, final concentration 1×10^−6 μg/ml, cultivated for 10 days (FIG. 14)). For the same molecule, the “Development and thallus formation” value was “normal development and thallus formation were observed” in data set [2]; “normal development and thallus formation were observed” with Ulva pertusa. The figures for the Stability result in data set [3] (general statement) and in data set [3] (substance induced under alkali condition) were “quite stable” and “relatively stable”, respectively.

For the origin of these results see patent US7279314B2, “Chemical substance having morphogenetic and growth-accelerating activities” (Marine Biotechnology Institute Co., Ltd., priority 2002, dated 2007).
